Experimental data: PubChem BioAssay AID330 (DTP/NCI, 2004)
Where “and” joins values, the source holds several entries; their conditions need not be identical. Equal entries are not always repeated. Toxic doses and inconclusive results are not listed.

Test system: P388 leukemia ip, CD2F1 mice, survival T/C
Test: NCI In Vivo Anticancer Drug Screen. Data for tumor model P388 Leukemia (intraperitoneal) in CD2F1 (CDF1) mice
Settings: endpoint: median survival time, higher = longer survival
Summary of the method: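 Mice carrying the transplanted tumor received test compound or vehicle. Survival was recorded in each group, and the value is the treated-group measurement divided by that of the vehicle-treated control group.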

COc1ccc2c(c1)c(COC(C)=O)c(COC(C)=O)c[n+]2[O-]
T/C (dose: 50.0 mg/kg/injection, schedule: Q01DX005 (ip), vehicle: Klucel (hydroxypropylcellulose) (HPC)): 98 % of control
T/C (dose: 100.0 mg/kg/injection, schedule: Q01DX005 (ip), vehicle: Klucel (hydroxypropylcellulose) (HPC)): 97 % of control
T/C (dose: 200.0 mg/kg/injection, schedule: Q01DX005 (ip), vehicle: Klucel (hydroxypropylcellulose) (HPC)): 94 % of control

NC1(C(=O)NCSc2ccccc2)CC=CCC1 (configuration not stated)
T/C (dose: 45.5 mg/kg/injection, schedule: Q01DX005 (ip), vehicle: Klucel (hydroxypropylcellulose) (HPC)): 97 % of control
T/C (dose: 91.0 mg/kg/injection, schedule: Q01DX005 (ip), vehicle: Klucel (hydroxypropylcellulose) (HPC)): 103 % of control
T/C (dose: 182.0 mg/kg/injection, schedule: Q01DX005 (ip), vehicle: Klucel (hydroxypropylcellulose) (HPC)): 96 % of control

COC(=O)Nc1nc2ccc(C(=O)C3CC3)cc2[nH]1
T/C (dose: 12.5 mg/kg/injection, schedule: Q01DX005 (ip), vehicle: saline with Tween-80): 111 % of control
T/C (dose: 25.0 mg/kg/injection, schedule: Q01DX005 (ip), vehicle: saline with Tween-80): 108 % of control
T/C (dose: 50.0 mg/kg/injection, schedule: Q01DX005 (ip), vehicle: saline with Tween-80): 117 % of control
T/C (dose: 100.0 mg/kg/injection, schedule: Q01DX005 (ip), vehicle: saline with Tween-80): 180 % of control

C[N+](C)=C1C=CC(=C2C=CSC=C2)C=C1
T/C (dose: 12.5 mg/kg/injection, schedule: Q01DX009 (ip), vehicle: saline): 108 % of control and 112 % of control

CCCCCCCCCCCCCCCC(=O)N(CC#CCN(CCCN(C)C)C(=O)CCCCCCCCCCCCCCC)CCCN(C)C
T/C (dose: 25.0 mg/kg/injection, schedule: Q01DX009 (ip), vehicle: other): 95 % of control
T/C (dose: 50.0 mg/kg/injection, schedule: Q01DX009 (ip), vehicle: other): 87 % of control

CN1C(=O)c2ccccc2N(C)C12CCN(Cc1ccccc1)CC2
T/C (dose: 50.0 mg/kg/injection, schedule: Q01DX005 (ip), vehicle: distilled water + alcohol): 103 % of control
T/C (dose: 100.0 mg/kg/injection, schedule: Q01DX005 (ip), vehicle: distilled water + alcohol): 100 % of control
T/C (dose: 200.0 mg/kg/injection, schedule: Q01DX005 (ip), vehicle: distilled water + alcohol): 97 % of control

C=CCNC(=S)n1cnc(N)n1
T/C (dose: 30.0 mg/kg/injection, schedule: Q01DX005 (ip), vehicle: saline with Tween-80): 107 % of control
T/C (dose: 60.0 mg/kg/injection, schedule: Q01DX005 (ip), vehicle: saline with Tween-80): 105 % of control and 108 % of control
T/C (dose: 120.0 mg/kg/injection, schedule: Q01DX005 (ip), vehicle: saline with Tween-80): 115 % of control and 96 % of control

O=C(C(=O)c1ccccn1)c1ccccn1
T/C (dose: 50.0 mg/kg/injection, schedule: Q04DX003 (ip), vehicle: saline with Tween-80): 100 % of control
T/C (dose: 100.0 mg/kg/injection, schedule: Q04DX003 (ip), vehicle: saline with Tween-80): 105 % of control
T/C (dose: 200.0 mg/kg/injection, schedule: Q04DX003 (ip), vehicle: saline with Tween-80): 109 % of control
T/C (dose: 400.0 mg/kg/injection, schedule: Q04DX003 (ip), vehicle: saline with Tween-80): 100 % of control

N#C/C(C(=N)c1ccccc1)=C1\SS/C(=C(\C#N)C(=N)c2ccccc2)S1
T/C (dose: 1.56 mg/kg/injection, schedule: Q01DX009 (ip), vehicle: saline with Tween-80): 99 % of control and 90 % of control
T/C (dose: 3.13 mg/kg/injection, schedule: Q01DX009 (ip), vehicle: saline with Tween-80): 99 % of control and 103 % of control
T/C (dose: 6.25 mg/kg/injection, schedule: Q01DX009 (ip), vehicle: saline with Tween-80): 104 % of control and 86 % of control and 90 % of control
T/C (dose: 12.5 mg/kg/injection, schedule: Q01DX009 (ip), vehicle: saline with Tween-80): 86 % of control and 97 % of control
T/C (dose: 25.0 mg/kg/injection, schedule: Q01DX009 (ip), vehicle: saline with Tween-80): 86 % of control
T/C (dose: 50.0 mg/kg/injection, schedule: Q01DX009 (ip), vehicle: saline with Tween-80): 105 % of control
T/C (dose: 100.0 mg/kg/injection, schedule: Q01DX009 (ip), vehicle: saline with Tween-80): 107 % of control
T/C (dose: 200.0 mg/kg/injection, schedule: Q01DX009 (ip), vehicle: saline with Tween-80): 105 % of control

COc1ccc2c(c1)N(C(=O)CNC(C)(C)C)c1ccccc1S2
T/C (dose: 100.0 mg/kg/injection, schedule: Q04DX002 (ip), vehicle: saline): 117 % of control
T/C (dose: 200.0 mg/kg/injection, schedule: Q04DX002 (ip), vehicle: saline): 99 % of control

CC(=O)O[C@@H]1[C@@H](O)[C@H]2O[C@@H]3C=C(C)CC[C@]3(CO)[C@]1(C)[C@@]21CO1
T/C (dose: 1.25 mg/kg/injection, schedule: Q01DX009 (ip), vehicle: saline with Tween-80): 110 % of control and 120 % of control
T/C (dose: 2.5 mg/kg/injection, schedule: Q01DX009 (ip), vehicle: saline with Tween-80): 118 % of control and 121 % of control
T/C (dose: 5.0 mg/kg/injection, schedule: Q01DX009 (ip), vehicle: saline with Tween-80): 120 % of control
T/C (dose: 20.0 mg/kg/injection, schedule: Q01DX009 (ip), vehicle: saline with Tween-80): 93 % of control

CS(=O)(=O)C(=S)Sc1ccccc1
T/C (dose: 25.0 mg/kg/injection, schedule: Q01DX001 (ip), vehicle: saline with Tween-80): 97 % of control
T/C (dose: 50.0 mg/kg/injection, schedule: Q01DX001 (ip), vehicle: saline with Tween-80): 97 % of control

COC(=O)C1=C(N)C(C#N)=C(C)C(C)(O)C1 (configuration not stated)
T/C (dose: 50.0 mg/kg/injection, schedule: Q01DX009 (ip), vehicle: Klucel (hydroxypropylcellulose) (HPC)): 99 % of control
T/C (dose: 100.0 mg/kg/injection, schedule: Q01DX009 (ip), vehicle: Klucel (hydroxypropylcellulose) (HPC)): 97 % of control
T/C (dose: 200.0 mg/kg/injection, schedule: Q01DX009 (ip), vehicle: Klucel (hydroxypropylcellulose) (HPC)): 108 % of control
